Data taken from PubChem BioAssay (NCI).
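Interpolation was linear, between the two tested concentrations surrounding the appropriate level; five concentrations were tested over 48 hours in 96-well plates. The concentration for 50% growth inhibition is given as GI50. TGI: concentration producing complete growth inhibition.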

Key:
Assay in all cases: NCI-60 cell line screen, 48 h
M14 melanoma = tested on: M14 melanoma
NCI-H23 lung = tested on: NCI-H23 lung
UACC-257 melanoma = tested on: UACC-257 melanoma
UACC-62 melanoma = tested on: UACC-62 melanoma
SNB-75 CNS = tested on: SNB-75 CNS
SN12C renal = tested on: SN12C renal
IGROV1 ovarian = tested on: IGROV1 ovarian
OVCAR-8 ovarian = tested on: OVCAR-8 ovarian
MALME-3M melanoma = tested on: MALME-3M melanoma
MDA-MB-435 = tested on: MDA-MB-435

| SMILES | TGI (M14 melanoma) | TGI (NCI-H23 lung) | TGI (UACC-257 melanoma) | TGI (UACC-62 melanoma) | TGI (SNB-75 CNS) | TGI (SN12C renal) | TGI (IGROV1 ovarian) | TGI (OVCAR-8 ovarian) | TGI (MALME-3M melanoma) | GI50 (MDA-MB-435) | TGI (MDA-MB-435) | GI50 (M14 melanoma) | GI50 (NCI-H23 lung) | GI50 (UACC-257 melanoma) | GI50 (UACC-62 melanoma) | GI50 (SNB-75 CNS) | GI50 (SN12C renal) | GI50 (IGROV1 ovarian) | GI50 (OVCAR-8 ovarian) |
| --- | --- | --- | --- | --- | --- | --- | --- | --- | --- | --- | --- | --- | --- | --- | --- | --- | --- | --- | --- |
| CC(=O)Nc1ccc(C2CC(c3ccc([N+](=O)[O-])cc3)=Nc3ccccc3S2=O)cc1 (stereo not given) | > 100 µM | 53.9 µM | 95.3 µM | 27.8 µM | > 100 µM | 72.2 µM | 34.7 µM | 89.2 µM | – | – | – | – | – | – | – | – | – | – | – |
| COc1cc(/C=C2\NC(=O)C(Cc3cc(OC)c(OC)c(C)c3OC)N(C(C)=O)C2=O)c(OC)c(C)c1OC (stereo not given) | > 100 µM | > 100 µM | > 100 µM | > 100 µM | > 100 µM | > 100 µM | > 100 µM | > 100 µM | > 100 µM | – | – | – | – | – | – | – | – | – | – |
| CCOC(=O)/C(=C/c1ccccn1)C(=O)c1ccccc1 | 29.3 µM | 30.5 µM | 27.9 µM | 24 µM | 27.5 µM | 27.2 µM | 32.8 µM | 31.4 µM | 27.3 µM | – | – | – | – | – | – | – | – | – | – |
| N#Cc1ccc(Sc2nc3ccccc3[nH]2)cc1 | – | > 100 µM | > 100 µM | > 100 µM | – | > 100 µM | > 100 µM | > 100 µM | > 100 µM | – | – | – | – | – | – | – | – | – | – |
| COc1cc(/C=C/c2csnn2)cc(OC)c1OC | > 100 µM | > 100 µM | > 100 µM | > 100 µM | – | > 100 µM | > 100 µM | > 100 µM | > 100 µM | – | – | – | – | – | – | – | – | – | – |
| COc1ccc(/C=C2\C(=O)N(NC(C)=O)c3ccccc32)cc1 | > 100 µM | > 100 µM | > 100 µM | > 100 µM | 93.8 µM | > 100 µM | > 100 µM | > 100 µM | > 100 µM | – | – | – | – | – | – | – | – | – | – |
| COC(=O)C(C(=O)C(=O)Nc1c(Cl)cc([N+](=O)[O-])cc1Cl)c1csc(-n2nc(C3=CCCCC3)cc2-c2ccccc2)n1 (stereo not given) | > 100 µM | – | > 100 µM | > 100 µM | > 100 µM | > 100 µM | – | > 100 µM | > 100 µM | – | – | – | – | – | – | – | – | – | – |
| CCOC(=O)C1(C)CCC(C(C(=O)O)C(=O)O)CC1=O (stereo not given) | > 100 µM | – | > 100 µM | > 100 µM | > 100 µM | > 100 µM | > 100 µM | > 100 µM | > 100 µM | – | – | – | – | – | – | – | – | – | – |
| CC1NOC(=O)C1N=Nc1ccc(Cl)cc1Cl (stereo not given) | 47.4 µM | 64.2 µM | 67.2 µM | > 100 µM | 46.5 µM | 49.1 µM | 85.7 µM | 72 µM | 56.8 µM | – | – | – | – | – | – | – | – | – | – |
| O=C1C2C3C=CC(C2C(=O)N1CO)C1C2C(=O)N(CO)C(=O)C2C31 (stereo not given) | > 100 µM | > 100 µM | > 100 µM | > 100 µM | > 100 µM | > 100 µM | > 100 µM | > 75.8 µM | > 100 µM | – | – | – | – | – | – | – | – | – | – |
| CC(=O)Oc1ccc(C2=Cc3ccc(OC(C)=O)cc3OC2C)cc1 (stereo not given) | 38.1 µM | > 100 µM | 64.1 µM | 25.1 µM | 29.7 µM | > 100 µM | 17 µM | > 100 µM | – | 0.63 µM | 15 µM | 4.11 µM | 5.3 µM | 15 µM | 4.61 µM | 3.48 µM | 7.08 µM | 3.41 µM | 4.41 µM |
| NNC(=O)C(=O)NN=C(C(Cl)(Cl)CO)C(Cl)(Cl)CO | 94 µM | 92.9 µM | > 100 µM | > 100 µM | 86.8 µM | > 100 µM | > 100 µM | 57.9 µM | 44.4 µM | – | – | – | – | – | – | – | – | – | – |
